Experimental data: ChEMBL document CHEMBL3232931 (J Med Chem, 2014); call rule not given here

How the values were obtained:
[1] = (§1) Inhibition of SARS coronavirus papain-like protease (amino acids 1541 to 1855) expressed in Escherichia coli BL21 (DE3) cells assessed as decrease in AMC release using Z-RLRGG-AMC as substrate by multimode plate reader analysis; parameters: species or system Severe acute respiratory syndrome-related coronavirus
[2] = biological target: Ubiquitin carboxyl-terminal hydrolase 7 (Homo sapiens, UniProt Q93009); assay: Inhibition of human USP7 using Ub-rhodamine 110 as substrate
[3] = biological target: T1, Ubiquitin carboxyl-terminal hydrolase 2 (Homo sapiens, UniProt O75604); assay: Inhibition of human USP2 using Ub-rhodamine 110 as substrate
T1 sequence (O75604 whole entry): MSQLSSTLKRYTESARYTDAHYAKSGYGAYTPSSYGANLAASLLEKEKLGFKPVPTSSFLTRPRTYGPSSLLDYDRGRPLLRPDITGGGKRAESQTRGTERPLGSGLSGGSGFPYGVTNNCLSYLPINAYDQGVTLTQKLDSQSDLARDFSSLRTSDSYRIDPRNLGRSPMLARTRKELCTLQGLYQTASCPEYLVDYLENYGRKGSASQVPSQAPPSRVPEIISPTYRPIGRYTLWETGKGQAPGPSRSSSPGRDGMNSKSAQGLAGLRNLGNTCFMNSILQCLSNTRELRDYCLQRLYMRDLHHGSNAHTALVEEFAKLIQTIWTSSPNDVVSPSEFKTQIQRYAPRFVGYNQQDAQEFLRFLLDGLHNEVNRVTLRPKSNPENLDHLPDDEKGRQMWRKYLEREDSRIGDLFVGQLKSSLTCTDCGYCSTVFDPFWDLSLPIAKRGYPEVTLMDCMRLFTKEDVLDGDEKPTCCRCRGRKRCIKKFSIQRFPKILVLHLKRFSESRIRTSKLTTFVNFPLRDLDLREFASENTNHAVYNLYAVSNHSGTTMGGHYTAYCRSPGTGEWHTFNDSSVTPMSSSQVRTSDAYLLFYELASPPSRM

[4] = biological target: T2, Sentrin-specific protease 8 (Homo sapiens) (UniProt Q96LD8); assay: Inhibition of human DEN1 using Nedd8-EKL as substrate at 31 uM
T2 sequence (whole entry): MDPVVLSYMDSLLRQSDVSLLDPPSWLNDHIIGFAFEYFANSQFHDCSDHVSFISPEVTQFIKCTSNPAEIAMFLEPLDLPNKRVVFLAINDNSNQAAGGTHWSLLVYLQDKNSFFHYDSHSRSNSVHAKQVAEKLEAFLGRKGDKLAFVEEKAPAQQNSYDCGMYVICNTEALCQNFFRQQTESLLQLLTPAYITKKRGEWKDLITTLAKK

[5] = biological target: T3, Ubiquitin carboxyl-terminal hydrolase 2 (Homo sapiens) (UniProt O75604); assay: Inhibition of human USP2 using Ub-rhodamine 110 as substrate at 31 uM
T3 sequence (whole entry): T1 sequence (O75604 whole entry)

[6] = Therapeutic index, ratio of CC50 for african green monkey Vero E6 cells to EC50 for SARS coronavirus infected in african green monkey Vero E6 cells; format: cell-based; details: read-out: Ratio CC50/EC50
[7] = biological target: T4, Ubiquitin carboxyl-terminal hydrolase 8 (Homo sapiens) (UniProt P40818); assay: Inhibition of human USP8 using Ub-rhodamine 110 as substrate at 31 uM
T4 sequence (whole entry): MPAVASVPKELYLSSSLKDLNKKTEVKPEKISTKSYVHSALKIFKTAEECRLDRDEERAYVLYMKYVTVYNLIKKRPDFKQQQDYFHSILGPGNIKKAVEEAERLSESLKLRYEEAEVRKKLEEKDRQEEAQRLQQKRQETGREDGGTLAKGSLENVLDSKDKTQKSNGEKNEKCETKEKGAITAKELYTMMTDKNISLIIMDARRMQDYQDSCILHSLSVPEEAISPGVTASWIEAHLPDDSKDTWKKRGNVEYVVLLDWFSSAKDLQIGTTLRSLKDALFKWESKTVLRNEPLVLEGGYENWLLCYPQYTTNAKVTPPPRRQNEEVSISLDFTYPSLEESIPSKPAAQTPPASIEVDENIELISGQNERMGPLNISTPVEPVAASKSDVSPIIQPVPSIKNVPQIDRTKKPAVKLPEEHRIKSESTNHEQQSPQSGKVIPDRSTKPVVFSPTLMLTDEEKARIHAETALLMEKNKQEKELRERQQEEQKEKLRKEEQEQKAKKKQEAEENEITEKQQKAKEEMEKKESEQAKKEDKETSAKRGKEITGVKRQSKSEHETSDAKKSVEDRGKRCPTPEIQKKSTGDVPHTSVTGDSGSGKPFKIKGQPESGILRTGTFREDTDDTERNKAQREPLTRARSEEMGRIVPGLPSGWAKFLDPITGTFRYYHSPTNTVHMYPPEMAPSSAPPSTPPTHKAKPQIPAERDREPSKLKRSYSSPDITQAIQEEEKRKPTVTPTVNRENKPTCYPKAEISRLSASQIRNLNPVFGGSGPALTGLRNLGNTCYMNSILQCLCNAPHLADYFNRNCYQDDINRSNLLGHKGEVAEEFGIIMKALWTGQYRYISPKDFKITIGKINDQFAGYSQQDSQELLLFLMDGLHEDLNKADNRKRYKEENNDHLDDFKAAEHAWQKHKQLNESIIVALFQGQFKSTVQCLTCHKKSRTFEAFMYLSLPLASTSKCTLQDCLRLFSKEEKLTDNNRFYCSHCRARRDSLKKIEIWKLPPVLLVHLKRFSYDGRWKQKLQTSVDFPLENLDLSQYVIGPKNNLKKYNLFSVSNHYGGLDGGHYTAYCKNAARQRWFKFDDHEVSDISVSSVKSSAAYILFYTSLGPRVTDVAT

[8] = biological target: T5, Ubiquitin carboxyl-terminal hydrolase 8 (Homo sapiens, UniProt P40818); assay: Inhibition of human USP8 using Ub-rhodamine 110 as substrate
T5 sequence (P40818 whole entry): T4 sequence (whole entry)

[9] = biological target: Ubiquitin carboxyl-terminal hydrolase isozyme L1 (Homo sapiens) (UniProt P09936); assay: Inhibition of human UCHL1 at 31 uM
BL21-DE3 = assay: as §1; details: Severe acute respiratory syndrome-related coronavirus
[10] = Metabolic stability in mouse liver microsomes assessed as parent compound remaining at 1 uM after 15 mins; format: ADME; details: read-out: Stability
[11] = biological target: Replicase polyprotein 1a (Human coronavirus NL63) (UniProt P0C6U6); assay: Inhibition of human coronavirus NL63 PLP2 (amino acids 1565 to 1894) expressed in Escherichia coli BL21 (DE3) cells assessed as reduction of AMC release using Z-RLRGG-AMC as substrate at 100 uM by multimode plate reader analysis
[12] = biological target: Replicase polyprotein 1a (Human coronavirus NL63) (UniProt P0C6U6); assay: (§2) Inhibition of human coronavirus NL63 PLP2 (amino acids 1565 to 1894) expressed in Escherichia coli BL21 (DE3) cells assessed as reduction of AMC release using Z-RLRGG-AMC as substrate by multimode plate reader analysis
Target sequence in this assay (P0C6U6 899-2462 limits assumed): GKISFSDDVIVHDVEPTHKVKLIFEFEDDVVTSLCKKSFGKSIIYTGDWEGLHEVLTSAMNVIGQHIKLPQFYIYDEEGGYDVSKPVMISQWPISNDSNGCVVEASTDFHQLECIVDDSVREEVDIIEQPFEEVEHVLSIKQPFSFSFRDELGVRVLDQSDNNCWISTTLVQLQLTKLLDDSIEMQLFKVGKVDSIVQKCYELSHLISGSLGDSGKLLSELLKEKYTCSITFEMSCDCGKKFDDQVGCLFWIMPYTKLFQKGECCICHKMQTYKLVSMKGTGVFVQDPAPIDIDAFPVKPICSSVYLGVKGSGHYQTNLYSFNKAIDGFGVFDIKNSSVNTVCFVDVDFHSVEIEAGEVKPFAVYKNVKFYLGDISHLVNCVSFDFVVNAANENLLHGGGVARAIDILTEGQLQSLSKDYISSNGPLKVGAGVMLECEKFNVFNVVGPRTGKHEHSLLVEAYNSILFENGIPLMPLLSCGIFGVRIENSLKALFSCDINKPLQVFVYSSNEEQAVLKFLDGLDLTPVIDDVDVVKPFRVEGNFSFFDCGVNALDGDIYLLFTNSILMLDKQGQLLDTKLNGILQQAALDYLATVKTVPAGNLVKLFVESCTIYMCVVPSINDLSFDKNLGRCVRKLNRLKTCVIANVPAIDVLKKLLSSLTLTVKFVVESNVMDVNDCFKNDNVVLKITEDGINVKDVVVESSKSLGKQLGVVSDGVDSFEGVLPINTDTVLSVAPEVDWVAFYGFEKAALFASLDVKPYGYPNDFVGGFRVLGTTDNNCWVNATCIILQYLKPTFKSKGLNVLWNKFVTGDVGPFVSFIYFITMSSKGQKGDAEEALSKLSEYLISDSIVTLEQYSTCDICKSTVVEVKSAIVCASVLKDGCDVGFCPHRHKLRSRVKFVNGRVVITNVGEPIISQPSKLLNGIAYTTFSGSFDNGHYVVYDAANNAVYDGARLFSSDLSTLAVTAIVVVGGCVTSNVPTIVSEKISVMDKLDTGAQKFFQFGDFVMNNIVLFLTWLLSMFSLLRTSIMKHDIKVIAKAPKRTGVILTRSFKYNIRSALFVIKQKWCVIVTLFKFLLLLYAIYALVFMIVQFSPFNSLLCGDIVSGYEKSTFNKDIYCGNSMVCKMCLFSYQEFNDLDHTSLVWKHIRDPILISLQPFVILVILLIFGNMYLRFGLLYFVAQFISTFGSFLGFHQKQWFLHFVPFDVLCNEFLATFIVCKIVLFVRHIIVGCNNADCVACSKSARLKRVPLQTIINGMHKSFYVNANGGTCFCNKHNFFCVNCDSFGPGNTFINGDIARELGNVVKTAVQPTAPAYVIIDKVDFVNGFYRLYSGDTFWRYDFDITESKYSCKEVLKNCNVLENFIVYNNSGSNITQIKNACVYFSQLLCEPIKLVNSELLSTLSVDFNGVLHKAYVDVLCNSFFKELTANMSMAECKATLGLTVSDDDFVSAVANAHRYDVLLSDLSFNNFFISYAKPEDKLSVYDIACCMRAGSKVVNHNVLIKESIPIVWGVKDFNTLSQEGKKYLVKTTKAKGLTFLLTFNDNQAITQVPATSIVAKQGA

Replicase polyprotein 1a = Replicase polyprotein 1a (Human coronavirus NL63, UniProt P0C6U6); assay: as §2
Replicase polyprotein 1a, sequence (P0C6U6 899-2462 limits assumed): as above

Ubiquitin carboxyl-terminal hydrolase isozyme L1 (Homo sapiens), sequence (P09936 whole entry, looked up): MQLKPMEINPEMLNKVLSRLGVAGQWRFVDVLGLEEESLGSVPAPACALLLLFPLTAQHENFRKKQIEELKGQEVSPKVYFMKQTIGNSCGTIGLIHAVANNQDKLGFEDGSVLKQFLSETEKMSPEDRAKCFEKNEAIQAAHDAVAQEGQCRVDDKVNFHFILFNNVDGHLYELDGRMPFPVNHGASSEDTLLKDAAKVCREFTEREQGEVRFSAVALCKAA
Ubiquitin carboxyl-terminal hydrolase 7, sequence (Q93009 whole entry): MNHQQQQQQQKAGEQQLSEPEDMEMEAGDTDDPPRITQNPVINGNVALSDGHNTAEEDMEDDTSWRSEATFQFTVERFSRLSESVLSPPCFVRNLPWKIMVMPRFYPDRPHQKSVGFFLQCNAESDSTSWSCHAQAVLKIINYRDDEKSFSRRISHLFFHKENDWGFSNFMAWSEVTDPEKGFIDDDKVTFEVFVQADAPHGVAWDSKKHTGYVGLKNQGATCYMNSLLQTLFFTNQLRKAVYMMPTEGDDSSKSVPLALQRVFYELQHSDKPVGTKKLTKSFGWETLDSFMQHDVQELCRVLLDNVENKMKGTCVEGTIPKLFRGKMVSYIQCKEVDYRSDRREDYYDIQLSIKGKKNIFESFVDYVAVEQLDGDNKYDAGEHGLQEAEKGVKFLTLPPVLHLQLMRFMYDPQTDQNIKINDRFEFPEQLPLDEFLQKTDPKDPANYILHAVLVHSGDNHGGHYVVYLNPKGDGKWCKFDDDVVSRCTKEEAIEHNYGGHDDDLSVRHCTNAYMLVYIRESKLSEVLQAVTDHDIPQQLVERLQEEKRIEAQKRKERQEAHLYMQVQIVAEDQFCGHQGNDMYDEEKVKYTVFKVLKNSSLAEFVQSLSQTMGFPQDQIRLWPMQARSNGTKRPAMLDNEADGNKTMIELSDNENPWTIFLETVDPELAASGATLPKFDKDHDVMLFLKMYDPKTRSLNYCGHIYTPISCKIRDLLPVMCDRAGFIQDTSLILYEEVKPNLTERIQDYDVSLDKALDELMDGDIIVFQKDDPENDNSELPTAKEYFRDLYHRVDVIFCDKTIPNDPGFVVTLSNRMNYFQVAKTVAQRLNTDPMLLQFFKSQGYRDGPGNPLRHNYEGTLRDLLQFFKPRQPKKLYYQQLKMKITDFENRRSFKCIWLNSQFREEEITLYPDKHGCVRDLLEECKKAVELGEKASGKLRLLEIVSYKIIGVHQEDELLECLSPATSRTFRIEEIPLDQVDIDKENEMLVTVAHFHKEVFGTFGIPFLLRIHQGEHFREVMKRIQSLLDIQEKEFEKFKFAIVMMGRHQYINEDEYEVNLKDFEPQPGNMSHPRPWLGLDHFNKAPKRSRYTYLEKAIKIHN

Structure (SMILES) | IC50 [1] | IC50 [2] | IC50 [3] | inhibition [4] | inhibition [5] | selectivity ratio [6] | inhibition [7] | IC50 [8] | inhibition [9] | Imax (BL21-DE3) | remaining at 0.25 h, 1 µM [10] | inhibition [11] | Imax [12] | IC50 (Replicase polyprotein 1a) | IC50 ([2]; read-out: IC50) | IC50 ([3]; read-out: IC50)
C[C@H](c1cccc2ccccc12)N1CCC(C(=O)NCc2ccc(F)cc2)CC1 | 0.49 µM | Not Active | Not Active | < 10% | < 10% | > 8.6 | 10% | > 100 µM | < 10% | – | – | – | – | – | – | –
C[C@H](c1cccc2ccccc12)N1CCC(C(=O)NCc2ccc3c(c2)OCO3)CC1 | 0.67 µM | Not Active | Not Active | < 10% | < 10% | – | 10% | > 100 µM | < 10% | 99% | 0.2% | > 30% | 46% | 18 µM | – | –
CC(=O)Nc1cccc(CNC(=O)C2CCN([C@H](C)c3cccc4ccccc34)CC2)c1 | 0.39 µM | – | – | < 10% | 10% | > 12 | 10% | > 100 µM | < 10% | 100% | 20% | > 30% | 71% | 46 µM | > 100 µM | > 100 µM
C[C@H](c1cccc2ccccc12)N1CCC(C(=O)NCc2cccc(F)c2)CC1 | 0.15 µM | Not Active | Not Active | < 10% | < 10% | > 18.5 | 10% | > 100 µM | < 10% | 100% | 1.2% | > 30% | 57% | 33 µM | – | –
